Counter-ions that a name gives are not always drawn.
System: mice
Test: Acute Toxicity (lethal dose LD0)
Format: in vivo
Conditions: for DL0 I.P. (maximum dose which did not cause any mortality after 8 days): intraperitoneal

C/C=C1/CC[C@H]2[C@@H]3CC[C@H]4C[C@H](N)CC[C@]4(C)[C@H]3CC[C@]12C [Example 1, (Z) 3α-amino-Δ^17(20) -5α-pregnene hydrochloride]
DL0 I.P. (maximum dose which did not cause any mortality after 8 days): 100 mg/kg | DL0 oral (maximum dose which did not cause any mortality after 8 days): ≥ 400 mg/kg

C[C@H](O)[C@@]1(O)CC[C@H]2[C@@H]3CC[C@H]4C[C@H](N)CC[C@]4(C)[C@H]3CC[C@@]21C [Example 3, (20S)3α-amino-5α-pregnane-17α,20-diol hydrochloride]
DL0 I.P. (maximum dose which did not cause any mortality after 8 days): 60 mg/kg | DL0 oral (maximum dose which did not cause any mortality after 8 days): 200 mg/kg

C[C@H](O)[C@H]1CC[C@H]2[C@@H]3CC[C@H]4C[C@@H](N)CC[C@@H]4[C@H]3CC[C@]12C [Example 5, (20S)3β-amino-19-nor-5α-pregnane-20-ol hydrochloride]
DL0 I.P. (maximum dose which did not cause any mortality after 8 days): 100 mg/kg | DL0 oral (maximum dose which did not cause any mortality after 8 days): 400 mg/kg

CC(=O)[C@@]1(O)CC[C@H]2[C@@H]3CC[C@H]4C[C@H](N)CC[C@]4(C)[C@H]3CC[C@@]21C [Example 6, 3α-amino-5α-pregnane-17α-ol-20-one hydrochloride]
DL0 I.P. (maximum dose which did not cause any mortality after 8 days): 60 mg/kg | DL0 oral (maximum dose which did not cause any mortality after 8 days): ≥ 400 mg/kg
